These results are taken from US20110082087A1, “COMPOUNDS FOR TREATING PAIN” (Edificio ICAT, priority 2008, published 2011).

The nature of data set [1]: Plasma serum stability of analogues. To be noted: Human Serum, 1-hour incubation, read-out: Mean Parent Remaining (%); for remaining at 1 h, 400 uM: test concentration 400 uM; for remaining at 1 h, 800 uM: test concentration 800 uM. Type of data set: in vitro ADME. As for the experimental part:
These analogues were tested for plasma serum stability, in comparison with KTP-NH2.

In data set [2] the test system is rats (Wister, male). The data set can be described thus: Tail Flick test. Type of data set: in vivo, rat. To be noted: i.p.; rat. The procedure: (§1) In vivo behavioural anti-nociception tests were carried out in rats (Wister, male). Unless otherwise stated, compounds were administered by intra-peritoneal (i.p.) injection. For most assays, the Tail Flick and the Hot Plate tests were used.
The tail-flick test (D'Amour F. E., Smith D. L. 1941. A method for determining the loss of pain sensation. J Pharmacol Exp Ther 1941; 72:74-79) is a standard investigative tool for pain and analgesia assessment in rodents. It is based on a spinal reflex response of the tail to radiant heat. Pain sensitivity in rats was measured as they responded to the application of radiant heat to a small area of their tails. The rat's tail was placed over a window located on a platform and subjected to irradiation by an intense light beam (10 W). When the rat feels discomfort, it flicks its tail which automatically stops the timer. The reaction time from activation of the light beam to the tail flick is automatically presented on a digital display. A cut-off time of 24 s was applied. Animal reaction time is a measurement of animal resistance to pain and is used to measure efficacy of analgesics.
(In general: In hot-plate and tail-flick tests a longer latency is read as antinociception.)

The test system of data set [3] is rats (Wister, male). The data set is described as follows: Increasing-temperature Hot Plate test. The data set is classed as in vivo, rat. As to conditions: i.p.; rat. As for the experimental part:
as §1
The hot-plate test (Eddy N. B and Leimbach D. 1953. Synthetic analgesics II. Dithienylbutenyl and dithienylbutylamines J. Pharmacol. Exp. Ther. 45: 339) evaluates a supraspinally integrated response in the form of thermal pain reflexes due to footpad contact with a heated surface. During the experiments, the animal is confined in a removable clear acrylic compartment where the latency time to the first hind paw or/and jumping responses are measured. […] The response is the licking of the hindpaw, and the corresponding plate temperature represents the recorded nociceptive end-point. The advantage of Increasing-Temperature Hot-Plate test over the standard constant-temperature hot-plate test is the higher sensitivity and the lack of influences of pre-exposure to the hot-plate before testing. Animal reaction temperature is a measurement of animal resistance to pain and is used to measure efficacy of analgesics.

Another data set relates to rats. The data set is described as follows: Comparison with morphine, behavioural nociception tests and behaviour observation. Type of data set: in vivo, rat. As to conditions: rats; i.p. As for the experimental part:
as §1
The analgesic potential of KTP-NH2 was also verified by comparison with well-known, widely-used analgesic molecules: ibuprofen and morphine.
From FIG. 12 it is possible to observe that the efficacy of 3 mg/100 g of KTP-NH2 is similar to that observed with 0.5 mg/100 g dose of morphine.

The nature of data set [4]: Partition into lipid bilayer vesicles (fluorescence titration). The data set is classed as physicochemical. As to conditions: mammal-mimetic lipid bilayer vesicle; numerical treatment of fluorescence titration. An excerpt: We performed biophysical studies using fluorescent methodologies in order to characterize the interaction of KTP-NH2 with liposomes representing human cell membranes (Santos N. C., Prieto M. and Castanho M. A. 2003. Quantifying molecular partition into model systems of biomembranes: an emphasis on optical spectroscopic methods. Biochim Biophys Acta 1612: 123-135.). A clear interaction of KTP-NH2 with the lipid bilayers was observed. […] When titrated with a mammal-mimetic lipid bilayer vesicle (circles), the fluorescence intensity of the phenolic moiety increases due to insertion in the apolar environment created by the lipids. The POPC system mimetizes the external layer of human cell membranes, whereas POPG lipidic mixture mimetizes the internal layer of human cell membranes.
In order to confirm that these plasma-stable KTP-NH2 derivatives maintained their lipophilicity, their potential interaction with human cell membranes was assessed. Again, we performed biophysical studies using fluorescent methodologies (Santos N. C., Prieto M. and Castanho M. A. 2003. Quantifying molecular partition into model systems of biomembranes: an emphasis on optical spectroscopic methods. Biochim Biophys Acta 1612: 123-135.).

The term share remaining denotes the share of the starting amount still present when the sample was taken.

Turning to `N=C(N)NCCC[C@@H](NC(=O)[C@H](N)Cc1ccc(O)cc1)C(N)=O` [D-Tyr-D-Arg-NH2, D-Tyrosyl-D-Arginine-NH2], the fraction remaining at 1 h, 400 uM in data set [1] stood at 98.4%. Consider `N=C(N)NCCC[C@H](NC(=O)[C@H](N)Cc1ccc(O)cc1)C(N)=O` [D-Tyr-L-Arg-NH2, D-Tyrosyl-L-Arginine-NH2], for which the fraction remaining at 1 h, 400 uM in data set [1] amounted to 98%. For the molecule `CC(C)Cc1ccc(C(C)C(=O)N[C@H](Cc2ccc(O)cc2)C(=O)N[C@@H](CCCNC(=N)N)C(N)=O)cc1` (stereo partly drawn) [Ibu-D-Tyr-L-Arg-NH2, Ibuprofen-D-Tyrosyl-L-Arginine-NH2], the amount remaining at 1 h, 800 uM in data set [1] was determined as 94.1%. On to `CC(C)Cc1ccc([C@H](C)C(=O)N[C@@H](Cc2ccc(O)cc2)C(=O)N[C@@H](CCCNC(=N)N)C(N)=O)cc1` [Ibu-KTP-NH2, Ibuprofen-L-Tyrosyl-L-Arginine-NH2], for which the fraction remaining at 1 h, 800 uM in data set [1] came out at 51.4%. Consider `N=C(N)NCCC[C@H](NC(=O)[C@@H](N)Cc1ccc(O)cc1)C(=O)O` [KTP, L-Tyrosyl-L-Arginine, reference compound], for which the “effect on tail flick latency” value with rats (Wister, male) [2] is “very small effect”. For the same molecule, the “effect in hot plate test” value in the data set with rats (Wister, male) [3] is given as “very small effect”. Turning to `N=C(N)NCCC[C@@H](NC(=O)[C@@H](N)Cc1ccc(O)cc1)C(N)=O` [L-Tyr-D-Arg-NH2, L-Tyrosyl-D-Arginine-NH2], the fraction remaining at 1 h, 400 uM in data set [1] amounted to 78.8%. Same read-out and setting: the figure for `CN[C@@H](Cc1ccc(O)cc1)C(=O)N[C@H](CCCNC(=N)N)C(N)=O` [Me-L-Tyr-D-Arg-NH2, Methyl-L-Tyrosyl-D-Arginine-NH2] is 98.5%. For the molecule `CN[C@@H](Cc1ccc(O)cc1)C(=O)N[C@@H](CCCNC(=N)N)C(N)=O` [Me-L-Tyr-L-Arg-NH2, Methyl-L-Tyrosyl-L-Arginine-NH2], the amount remaining at 1 h, 400 uM in data set [1] came out at 89%. `CN1CC[C@]23c4c5ccc(O)c4O[C@H]2[C@@H](O)C=C[C@H]3[C@H]1C5` [morphine, reference compound]: in the data set on rats, the “alterations in behavior (secondary effects)” value was “several alterations in behavior, like scratching”.

For “Ibuprofen-L-Tyrosyl-L-Arginine-OH [Ibu-KTP]”, the “local concentration in the model membrane of mammals relative to surrounding bulk aqueous phase” value in data set [4] was roughly 333 fold.
